Source: patent US20110123617A1, “CLIOQUINOL FOR THE TREATMENT OF HEMATOLOGICAL MALIGNANCIES” (priority 2007, published 2011)

Key:
cyclin D2 promoter = test: High throughput screen for inhibitors of cyclin D2 transactivation (luciferase assay); assay type: cell-based, mouse; details: NIH 3T3 cells over-expressing c-maf, ~5 μM, sixteen hours
Description: The promoter of cyclin D2 (−894 to −4), containing c-maf responsive element sequence (MARE), was cloned from HeLa cell genomic DNA and subcloned into the pGL2 luciferase reporter vector (Promega, Madison, Wis.). This construct was co-transfected with pcDNA3.1 containing a neomycin resistance gene into NIH3T3 wild type cells and NIH3T3 cells stably over-expressing c-maf-IRES-GFP. Cells stably expressing c-maf, GFP, and luciferase were selected for further application. NIH3T3 cells stably expressing c-maf and the cyclin D2 promoter driving luciferase (13,000 cells per well) were plated in 96-well plates by the Biomek FX liquid handler (Beckman, Fullerton, Calif.). The same workstation was used for plate formatting and reagent distribution. […] After incubation, cyclin D2 transactivation was assessed by the luciferase assay and viability was assessed by the MTS assay. Luciferase activity was assessed according to the manufacturer's instructions (Promega, Madison, Wis.). […] After 10 min incubation, an equal volume of Bright-Glo Luciferase substrate (Promega) was added and the luminescence signal was detected with a 96-well Luminoskan luminescence plate reader (Thermo Labsystem, Waltham, Mass.) with a 5 second integration. […] Sixteen hours after the addition of the compounds, luciferase expression was measured as a marker of cyclin D2 transactivation. […]

p27 = test: Immunoblotting of p27; assay type: cell-based; details: low micromolar concentrations
Description: A) Effect of increasing concentrations of clioquinol on LP1 and MY5 multiple myeloma cells at twenty hours after clioquinol treatment; determined by SDS-PAGE immunoblotting. B) Effect of increasing concentrations of clioquinol on the G0/G1 ratio in AML3, U937, LP1 and MY5 cells at twenty hours after clioquinol treatment; determined by PI staining and flow cytometry. To prepare cytosolic extracts, NIH3T3 cells and myeloma cells were washed with phosphate-buffered saline (PBS, pH 7.4) and suspending in lysis buffer [10 mM Tris (pH 7.4), 150 mM NaCl, 0.1% Triton X-100, 0.5% sodium deoxycholate, and 5 mM EDTA] containing protease inhibitors (Complete tablets, Roche, Indianapolis, Ind.). Protein concentrations were determined by the Bradford assay. Immunoblot assays were performed by subjecting equal amounts of protein to SDS-PAGE gels followed by transfer to Nitrocellulose membranes. Membranes were probed with polyclonal rabbit anti-human cyclin D2 (0.5 μg/ml, both from Santa Cruz Biotech, Santa Cruz, Calif.), or monoclonal mouse-anti human p21 (1:200 v/v, Santa Cruz Biotech), monoclonal mouse-anti human p27 (1:2,500 v/v BD Transduction Laboratories), polyclonal mouse-anti human ubiquitin (1:2,000 v/v Calbiochem) and monoclonal mouse-anti-β-actin (1:10,000 v/v) (Sigma, St. Lois, Mo.). […] Detection was performed by the Enhanced Chemical Luminescence (ECL) method (Pierce, Rockford, Ill.).

myeloma cell lines = test: Cell viability (MTS assay), myeloma cell lines; assay type: cell-based; details: 12/14 myeloma cell lines, forty-eight hours; read-out: IC50 (cell death)
Method: (§1) Cell viability of leukemia, myeloma, solid tumor and primary cells forty-eight hours after clioquinol treatment by MTS assay. Cell viability was assessed with the CellTiter96® Aqueous Non-Radioactive Assay kit according to manufactures' instructions (Promega). Apoptosis was measured by flow cytometry to detect cell surface Annexin V expression and propidium iodide (PI) uptake (Biovision, Mountain View, Calif., USA) as previously described (20) The inventors tested the effects of clioquinol on the viability of acute leukemia (n=7), myeloma (n=14), and solid tumor (n=5) cell lines as well as primary AML samples (n=6) and primary normal hematopoietic cells (n=3). Forty-eight hours after incubation, clioquinol induced cell death in 6/7 AML, 12/14 myeloma, 0/5 solid tumor, […] and 0/3 normal hematopoietic cells with an IC50 <20 μM (FIG. 5). Of note, after oral administration of clioquinol, trough serum concentrations of 20 μM can be achieved in patients (32).

[1] = system: normal hematopoietic cells; test: Cell viability (MTS assay), primary normal hematopoietic cells; assay type: cell-based, human; details: normal hematopoietic cells supplemented with copper
Method: as §1

MY5 cells = test: Apoptosis by Annexin V and PI staining and flow cytometry; assay type: cell-based
Method: (TM) (20 μM). Apoptosis was measured by Annexin V and PI staining and flow cytometry. Cell viability was assessed with the CellTiter96® Aqueous Non-Radioactive Assay kit according to manufactures' instructions (Promega). Apoptosis was measured by flow cytometry to detect cell surface Annexin V expression and propidium iodide (PI) uptake (Biovision, Mountain View, Calif., USA) as previously described (20)

K562 leukemia cells = test: K562 leukemia xenograft; assay type: in vivo, mouse; details: 100 mg/kg for 5 of 7 days, subcutaneous K562
Description: Similar results were obtained with a K562 leukemia xenograft.

Compound: Oc1c(I)cc(Cl)c2cccnc12 [clioquinol, 5-chloro-7-iodo-8-hydroxyquinoline]
- cyclin D2 transactivation (luciferase expression) (cyclin D2 promoter): c-maf independent inhibitors of the cyclin D2 promoter
- expression of p27 (p27): increased expression
- IC50 (myeloma cell lines): < 20 µM
- potency of clioquinol [1]: increased the potency of clioquinol
- clioquinol-induced cell death (MY5 cells; copper supplemented in the medium (CuCl2 20 μM)): enhanced the toxicity of clioquinol
- viability of MY5 cells (MY5 cells; twenty-four hours): reduces the viability of MY5 cells
- clioquinol-induced cell death (MY5 cells; with copper chelator tetrathiomoylbdate (20 μM)): abrogated clioquinol-induced cell death
- tumor growth (tumor volume) (K562 leukemia cells): delayed tumor growth
